Each block holds one compound with its values, some of them ahead of it.
How the values were obtained:
Assay in all cases: ribozyme self-cleavage, PAGE with SYBR Gold
[1] = system: Motif_9307 allosteric ribozyme (RNA, riboswitch) GGGCGUAGCCUGAUGAGACUUAUAAUUUUUGAUAUAGAAAUAAAUUACAGUAGUUACACGCAAUAACCGUUGGUCCAAAUAGUAUCCUGUCCUGAGCCGACCGAGUCGAAACGUGGUGAAAGCCACGUCGCUGCGCCGCAGCUGUGGAA; conditions: 100 mM KCl, 20 mM MgCl2; 30 mM HEPES pH 7.5, 25°C, 30 min; no change in cleavage
[2] = system: THEO allosteric ribozyme (RNA, aptamer) GGGCGUAGCCUGAUGAGCCCUAAUACCAGCCGAAAGGCCCUUGGCAGUAGAGCGAAACGUGGAAACACGUCGCUGCGAGCUGUGG; conditions: 100 mM KCl, 20 mM MgCl2, 30 mM HEPES pH 7.5, 25°C, 30 min; for binding: 100 μM compound
[3] = system: ThiC-TPP allosteric ribozyme (bridge of four base pairs) (RNA, riboswitch) GGGCGUAGCCUGAUGAGACUCGGGGUGCCCUUCUGCGUGAAGGCUGAGAAAUACCCGUAUCACCUGAUCUGGAUAAUGCCAGCGUAGGGAAGUCGAAACGUGGUGAAAGCCACGUCGCUGCGCCGCAGCUGUGGAA; conditions: 100 mM KCl, 20 mM MgCl2, 30 mM HEPES pH 7.5, 25°C, 30 min
[4] = system: ThiC-TPP allosteric ribozyme (bridge of three base pairs) (RNA, riboswitch) GGGCGUAGCCUGAUGAGCUCGGGGUGCCCUUCUGCGUGAAGGCUGAGAAAUACCCGUAUCACCUGAUCUGGAUAAUGCCAGCGUAGGGAAGCGAAACGUGGUGAAAGCCACGUCGCUGCGCCGCAGCUGUGGAA; conditions: 100 mM KCl, 20 mM MgCl2; 30 mM HEPES pH 7.5, 25°C, 30 min; apparent; text gives only 1 to 3 μM for both bridges
[5] = system: NCU-TPP allosteric ribozyme (bridge of three base pairs) (RNA, riboswitch) GGGCGUAGCCUGAUGAGACUACGGGCGCUGUCGAAAGACAGCUGAGAUUGUACCGUGAUUACUCGAUCAAGUUAAUGCUUGCGUGAGAAACGUCGAAACGUGGUGAAAGCCACGUCGCUGCGCCGCAGCUGUGGAA; conditions: 100 mM KCl, 20 mM MgCl2, 30 mM HEPES pH 7.5, 25°C, 30 min, half-maximal cleavage change

binding [1]: no
SMILES: N[C@@H](CCS)C(=O)O

binding [1]: no
SMILES: C[S+](CC[C@H](N)C(=O)O)C[C@H]1O[C@@H](n2cnc3c(N)ncnc32)[C@H](O)[C@@H]1O (stereo partly shown)

binding ([2]; cleavage fraction 0.421 against 0.163 without ligand): yes
SMILES: Cn1c(=O)[nH]c(=O)c2[nH]cnc21

binding ([3]; cleavage fraction 0.235 against 0.403 without ligand): yes
SMILES: Cc1ncc(C[n+]2csc(CCO)c2C)c(N)n1

apparent K D ([3]; apparent, half-maximal cleavage inhibition): 1.2 ± 0.2 µM
K D [4]: 3.0 ± 1.1 µM
apparent K D [5]: 2.4 ± 1.4 µM
SMILES: Cc1ncc(C[n+]2csc(CCOP(=O)(O)OP(=O)(O)O)c2C)c(N)n1

apparent K D ([2]; apparent, half-maximal cleavage induction): 3.1 ± 0.2 µM
SMILES: Cn1c(=O)c2[nH]cnc2n(C)c1=O

binding ([3]; cleavage fraction 0.393 against 0.403 without ligand): no
SMILES: N[C@@H](Cc1cnc[nH]1)C(=O)O

binding [1]: no
SMILES: Nc1ncnc2c1ncn2[C@@H]1O[C@H](CSCC[C@H](N)C(=O)O)[C@@H](O)[C@H]1O

binding [1]: no
SMILES: NC(=O)CC[C@H](N)C(=O)O

binding ([2]; cleavage fraction 0.300 against 0.163 without ligand): weak
SMILES: Cn1c(=O)[nH]c2nc[nH]c2c1=O

binding [1]: no
SMILES: CSCC[C@H](N)C(=O)O

Source: publication PMC12747935 (2025)
